Source: article PMC10578352, “Identification of a Protein Arginine Methyltransferase 7 (PRMT7)/Protein Arginine Methyltransferase 9 (PRMT9) Inhibitor” (Journal of Medicinal Chemistry, 2023)

Legend:
Format in all cases: biochemical
[1] = target: T1, MLL1/KMT2A (5 component complex) (Homo sapiens, UniProt Q03164); test: HotSpot KMT activity assay, MLL1
T1 construct: MLL1 residues 3745–3969, C-terminus; His (N); purchased Reaction Biology Corporation
From the text: (§1) ; MW = 35.4 kDa; Genbank Accession # NM_018489), or the human recombinant EZH2-containing five-member polycomb repressive complex 2 (including EZH2 residues 2–746, AEBP2 2–517, EED 2–441, RbAp48 2–425, SUZ12 2–739; all full-length; with N-terminal Flag-tag on EED and N-terminal His-tag on all others; MW = 333.8 kDa; Genbank Accession # NM_001203247, NM_001114176, NM_003797, NM_005610, NM_015355), or the human recombinant G9a (residues 913–1193, C-terminus; with an N-terminal His-tag; MW = 34.6 kDa; Genbank Accession # NM_006709.3), or the human recombinant MLL1 complex (including MLL1 residues 3745–3969, C-terminus, WDR5 22–334, C-terminus, RbBP5 1–538, C-terminus, ASH2L 2–534, C-terminus, DPY-30 1–99, C-terminus; N-terminal His-tag on all subunits; MW = 212.0 kDa; Genbank Accession # NM_005933, NM_017588, NM_005057, NM_001105214, NM_0325742), or the human recombinant SET7/9 (residues 2–366, C-terminus; with a N-terminal GST-tag and a C-terminal His-tag; MW = 68.5 kDa; Genbank Accession # NM_030648), or the human recombinant SMYD3 (residues 2–428, C-terminus; C-terminal His-tag; MW = 50.1 kDa; Genbank Accession # NM_001167740), or the human recombinant SUV39H2 (residues 46–410, C-terminus; N-terminal fusion protein with a C-terminal His-tag; MW = 98.8 kDa; GenBank Accession No. NM_001193424), or the human recombinant DOT1L (residues 1–416; N-terminal GST-tag; MW = 80.0 kDa; Genbank Accession # NM_032482) was added to a solution of the proper substrate (oligo nucleosomes for ASH1L, MLL1 complex, and DOT1L, final concentration 0.05 mg/mL; core histone for EZH2 complex and SET7/9, final concentration 0.05 mg/mL; histone H3 for SUV39H2, final concentration 5 μM; histone H3 1–21 for G9a, final concentration 2.5 μM) in freshly prepared reaction buffer (50 mM Tris-HCl (pH 8.5), 5 mM MgCl2, 50 mM NaCl, 1 mM DTT, 1 mM PMSF, 1% DMSO) and gently mixed. […] After incubation for 60 min at 30 °C, the reaction mixture was delivered to filter paper for detection (as assessed by scintillation). […] Values obtained for each compound are mean ± SD determined for two separate experiments.

SET7/9/KMT7 = target: T2, SET7/9/KMT7 (Homo sapiens, UniProt Q8WTS6); test: HotSpot KMT activity assay, SET7/9; conditions: 10-dose IC50 mode; read-out: ref. cmpd. IC50, SET7/9
T2 construct: the human recombinant SET7/9 (residues 2–366, C-terminus); GST (N); His (C); purchased Reaction Biology Corporation
T2 sequence (Q8WTS6 2-366): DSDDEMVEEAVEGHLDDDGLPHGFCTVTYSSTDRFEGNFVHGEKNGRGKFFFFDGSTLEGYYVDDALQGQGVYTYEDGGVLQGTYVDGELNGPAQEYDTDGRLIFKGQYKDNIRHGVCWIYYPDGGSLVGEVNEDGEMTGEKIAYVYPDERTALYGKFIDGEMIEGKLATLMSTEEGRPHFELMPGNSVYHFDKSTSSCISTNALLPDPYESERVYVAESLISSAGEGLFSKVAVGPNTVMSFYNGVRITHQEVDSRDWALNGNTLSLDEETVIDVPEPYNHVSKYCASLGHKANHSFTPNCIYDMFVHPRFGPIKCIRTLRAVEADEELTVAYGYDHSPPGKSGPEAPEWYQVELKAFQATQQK
From the text: as §1

SMYD3/KMT3E = target: T3, SMYD3/KMT3E (Homo sapiens, UniProt Q9H7B4); test: HotSpot KMT activity assay, SMYD3
T3 construct: the human recombinant SMYD3 (residues 2–428, C-terminus); C-terminal His-tag; His (C); purchased Reaction Biology Corporation
T3 sequence (Q9H7B4 2-428): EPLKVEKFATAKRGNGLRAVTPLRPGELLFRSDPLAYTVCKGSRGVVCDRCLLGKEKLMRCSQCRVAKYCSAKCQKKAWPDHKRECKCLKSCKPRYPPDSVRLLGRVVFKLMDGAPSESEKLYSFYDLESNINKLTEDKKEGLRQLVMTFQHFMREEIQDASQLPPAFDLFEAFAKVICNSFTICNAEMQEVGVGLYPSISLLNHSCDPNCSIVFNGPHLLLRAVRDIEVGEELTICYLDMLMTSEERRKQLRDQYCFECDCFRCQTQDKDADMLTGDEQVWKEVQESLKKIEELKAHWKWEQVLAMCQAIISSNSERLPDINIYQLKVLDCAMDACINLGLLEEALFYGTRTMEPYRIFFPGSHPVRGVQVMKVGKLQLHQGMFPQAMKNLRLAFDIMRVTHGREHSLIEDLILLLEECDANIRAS
From the text: as §1

SUV39H2/KMT1B = target: T4, SUV39H2/KMT1B (Homo sapiens, UniProt Q9H5I1); test: HotSpot KMT activity assay, SUV39H2; conditions: 10-dose IC50 mode; read-out: ref. cmpd. IC50, SUV39H2
T4 construct: the human recombinant SUV39H2 (residues 46–410, C-terminus); His (C); purchased Reaction Biology Corporation
T4 sequence (Q9H5I1 46-410): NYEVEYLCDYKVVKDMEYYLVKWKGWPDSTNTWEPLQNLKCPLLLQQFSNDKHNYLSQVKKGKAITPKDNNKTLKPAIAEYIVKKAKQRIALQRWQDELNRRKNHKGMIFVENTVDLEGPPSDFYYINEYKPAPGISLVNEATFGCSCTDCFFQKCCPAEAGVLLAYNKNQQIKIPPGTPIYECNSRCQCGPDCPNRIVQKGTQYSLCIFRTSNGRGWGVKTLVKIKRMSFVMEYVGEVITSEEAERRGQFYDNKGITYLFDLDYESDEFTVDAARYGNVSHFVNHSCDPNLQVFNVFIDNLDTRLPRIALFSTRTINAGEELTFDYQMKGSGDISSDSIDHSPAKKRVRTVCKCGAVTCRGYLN
From the text: as §1

For `Nc1ncnc2c1ncn2[C@@H]1O[C@H](CSCC[C@H](N)C(=O)O)[C@@H](O)[C@H]1O` [SAH, S-5′-adenosyl-L-homocysteine, reference compound], the IC50 [1] was 0.3 µM, the IC50 (SET7/9/KMT7) was 70.4 µM and the IC50 (SMYD3/KMT3E) was 15.9 µM. For the same compound, the IC50 (SUV39H2/KMT1B) was 37.3 µM.
